The source of these data is US11065245B2, “Priming of cancer cells with low dose naltrexone” (CANCER VACCINE INSTITUTE, priority 2014, dated 2021).

For experiment [1], the system named is A549 cells (a lung cancer cell line). Put plainly: Cell growth (MTT) with recovery (wash) phase after naltrexone. It counts as cell-based. Particulars: 1 nM and 10 nM naltrexone 48 h then 24 h drug-free vs 72 h continuous. As to the method: (§1) (A) A549 cells (a lung cancer cell line) and (B) HCT116 cells (a colorectal carcinoma cell line), were cultured for 48 h in 1 nM and 10 nM (low dose) naltrexone (LDN) and in 1 μM and 10 μM (standard dose) naltrexone (NTX). Cells were either then washed and allowed to grow in drug-free medium for 24 h (wash) or continuously cultured in naltrexone for a total of 72 h (72); cell was viability assessed by absorbance readings. Effect of the wash step on HCT116 cells were also measured by (C) 3-(4,5-dimethylthiazol-2-yl)-2,5-diphenyltetrazolium bromide (MTT) colorimetric assay, (D) cell counting and (E) percentage of viable cells.
(§2) To study the effect of each agent on cell growth, cells growing exponentially were added to 96-well plates at a density of 3×10^4/well. Drugs were then added to the wells, ensuring an equal volume of 200 μl across the plate. Cell number was measured at 72 hr using a standard methylthiazoletetrazolium (MTT)-based assay without modifications. Briefly, MTT was added to each well to give a working concentration of 0.4 mg/ml, and plates returned to the incubator for a further 1 hr. After this time, the medium was aspirated off, 200 μl of DMSO was then added to each well and plates agitated gently for 5 min before measuring optical density at 540 nm in each well. […]

The subject of experiment [2] is HCT116 cells (a colorectal carcinoma cell line). The experiment can be described thus: Cell growth (MTT, cell counting, viability) with recovery (wash) phase after naltrexone. Particulars: 1 nM and 10 nM naltrexone 48 h then 24 h drug-free vs 72 h continuous. Type of experiment: cell-based, human. As to the method:
as §1, §2

The subject of experiment [3] is T98G cells (glioma cell line). The experiment can be described thus: Cell growth (absorbance) with recovery (wash) phase after naltrexone. It counts as cell-based. Particulars: naltrexone 48 h then 24 h drug-free vs 72 h continuous. As to the method:
(§3) To study the effect of each agent on cell growth, cells growing exponentially were added to 96-well plates at a density of 3×10^4/well. Drugs were then added to the wells, ensuring an equal volume of 200 μl across the plate. Cell number was measured at 72 hr using a standard methylthiazoletetrazolium (MTT)-based assay without modifications. Briefly, MTT was added to each well to give a working concentration of 0.4 mg/ml, and plates returned to the incubator for a further 1 hr. After this time, the medium was aspirated off, 200 μl of DMSO was then added to each well and plates agitated gently for 5 min before measuring optical density at 540 nm in each well. The effect of recovery, where a wash step was included, was studied by removing naltrexone-containing medium and replacing this with fresh drug-free medium after 48 hr, before assessing cell number at the 72 hr time-point. Cell counting was performed by under light microscopy using staining with trypan blue to aid the discrimination of dead/dying cells. See description of FIGS. 1 and 2.

The test system of experiment [4] is U87MG cells (glioma cell line). The description is as above. Type of experiment: cell-based. Particulars: naltrexone 48 h then 24 h drug-free vs 72 h continuous. As to the method: as §3
Experiment [5] relates to Bcl-2-associated death promoter (BAD) protein. The experiment can be described thus: Western blot/densitometry of cell cycle proteins in HCT116 cells. It counts as cell-based, human. The note with it: 10 nM naltrexone (LDN), 48 h. How it is done: (§4) Methodologically, HCT116 cells were treated with NTX and LDN for 48 h before determination of cellular proteins as labelled in the figure. The intensities of each of the bands indicate the level at which these proteins were expressed, which were enumerated by density analysis.
(§5) Cells were treated with 10 μM naltrexone (NTX) or 10 nM naltrexone (LDN) for 48 hr before they were harvested, and total cellular protein was solubilised in lysis buffer and resolved by Tris-glycine electrophoresis using a 4-12% bis-tris gradient-gel. Following transfer of proteins to 0.45-lm nitrocellulose membranes, blocking was performed in 5% (w/v) nonfat milk in TTBS [0.5% (v/v) Tween-20 in TBS (50 mM Tris, 150 mM NaCl, pH 8.0)]. Primary antibody probing for the protein specified in the figure were performed overnight at 4° C. before secondary probing using horseradish peroxidase-conjugated anti-species IgG1. Bands were visualised by the ECL-plus detection system. Densitometry analysis was performed using proprietary analysis software. RNA was extracted from these cells for gene expression analysis. RNA was purified by Trizol, followed by precipitation with isopropanol. […] Equal amounts (750 ng) of cRNA were hybridised to the Illumina human HT12-v3 arrays for 18 hr and subsequently processed according to manufacturer's instructions before scanning on an Illumina BeadArray Reader. […]
(In general: Immunoblotting shows a protein as a band on a membrane.)

The test system of experiment [6] is phosphorylated AKT. The experiment is described as above. It counts as cell-based, human. The note with it: 10 nM naltrexone (LDN), 48 h. As to the method: as §4, §5
Experiment [7] relates to murine neuroblastoma. Particulars: murine xenograft model; cited from earlier work.
In experiment [8] the test system is human colon cancer cell growth. The note with it: murine xenograft model; cited from earlier work.
Experiment [9] relates to human ovarian cancer cells. The note with it: short-term naltrexone exposure; cited from earlier work.

Turning to `O=C1CC[C@@]2(O)[C@H]3Cc4ccc(O)c5c4[C@@]2(CCN3CC2CC2)[C@H]1O5` [LDN, morphinan-6-one, 17-(cyclopropylmethyl)-4,5-epoxy-3,14-di hydroxy-(5α)], the “cell numbers, recovery (wash) phase vs continuous administration” value in [1], in experiment [2], in experiment [3] and in experiment [4] was “greater reduction in cell numbers” throughout. In addition, the “BAD protein level relative to untreated cells” value in experiment [5] was “upregulated”. Also, the “phosphorylated AKT level relative to untreated cells” value in experiment [6] is “downregulated”. Also, in experiment [7], the “growth of murine neuroblastoma” value was “inhibition”. In addition, the “growth of human colon cancer cells” value in experiment [8] is given as “inhibition”. The DNA synthesis entry in experiment [9] is reported as “decrease in DNA synthesis”.
